Patent publication US8871443B2, “Schizophrenia-related isoform of KCNH2 and development of antipsychotic drugs” (The United States of America, as represented by the …, priority 2007, dated 2014)

Columns and labels:
KCNH2-1A mRNA expression = experiment: KCNH2-1A expression in frontal cortex of neuroleptic treated rats; details: for effect on KCNH2-1A expression within the frontal cortex: one of three doses for 28 days, vs vehicle; for change in KCNH2-1A expression, frontal cortex: 28 days
Procedure: (§1) Referring to FIG. 19, 8-10 rats per treatment group were treated with one of three doses of either Haloperidol (0.08, 0.6, and 1 mg/kg) or Clozapine (0.5, 5, 10 mg/kg) for 28 days (as compared to rats treated with vehicle alone). Frontal cortex expression levels of NOS3 (ABI assay Rn02132634_sl) and KCNH2-1A (ABI assay Rn01442523_ml) were normalized to the geometric mean of two housekeeping genes (GAPDH, B2M). Effects of antipsychotic treatment on gene expression were tested by linear regression with gene expression as the dependent variable. Differences between vehicle alone and the two therapeutic range equivalent dosages (0.08 and 0.6 mg/kg/day of Haloperidol; 0.5 and 5 mg/kg/day of Clozapine) were tested using post-hoc LSD.

NOS3 mRNA expression = experiment: NOS3 expression in frontal cortex of neuroleptic treated rats; format: in vivo, rat; details: one of three doses for 28 days, vs vehicle
Procedure: as §1

[1] = tested on: patients with schizophrenia; experiment: CATIE trial, time to discontinuation of olanzapine (Cox proportional hazard model); format: in vivo, human; details: for hazard ratio (HR) of discontinuation of medication: n=89; for Time to discontinuation, Est (COX proportional hazard model) / Time to discontinuation, HR (hazard ratio): n = 89, event = 46
Description: The second cohort consisted of patients randomly assigned to five medications during the Phase 1/1A (first drug assigned) of the Clinical Antipsychotic Trials of Intervention Effectiveness (CATIE), (Stroup T S, McEvoy J P, Swartz M S, et al. The National Institute of Mental Health Clinical Antipsychotic Trials of Intervention Effectiveness (CATIE) project: Schizophrenia trial design and protocol development. Schizophr. Bull. 2003; 29(1):15-31) a clinical trial to compare the effectiveness of antipsychotic drugs. Patients were initially randomly assigned to receive olanzapine, perphenazine, quetiapine, risperidone or ziprasidone under double-blind conditions and followed up for 18 months or until treatment was discontinued or switched to another antipsychotic (i.e. Phase 2). Eligible patients were 18 to 65 years of age, had received a diagnosis of schizophrenia based on DSM-IV criteria 26 and were able to take oral antipsychotic medication. The primary outcome measure in the CATIE sample was time to medication discontinuation, most often due to lack of efficacy or side-effects. PANSS ratings were included as a secondary efficacy outcome. Details on the CATIE trial methods have been previously published. (Stroup T S, McEvoy J P, Swartz M S, et al. The National Institute of Mental Health Clinical Antipsychotic Trials of Intervention Effectiveness (CATIE) project: Schizophrenia trial design and protocol development. Schizophr. Bull. 2003; 29(1):15-31.) For consistency with the NIMH inpatient study and to reduce effects of genetic heterogeneity, only Caucasian subjects were included for analysis. Because of the outpatient and parallel design of this study, information about compliance based on drug clearance is an important factor determining symptom change during the CATIE trial. (Bigos K L, Pollock B G, Coley K C, et al. Sex, race, and smoking impact olanzapine exposure. Journal of Clinical Pharmacology. 2008; 48(2):157-165; Bigos K L, Bies R R, Pollock B G, Lowy J J, Zhang F, Weinberger D R. Genetic Variation in CYP3A43 Explains Racial Difference in Olanzapine Clearance. Molecular Psychiatry. In Press.) Thus, we only analyzed treatment response from subjects on whom we had drug clearance data (N=364) (Bigos K L, Pollock B G, Coley K C, et al. Sex, race, and smoking impact olanzapine exposure. Journal of Clinical Pharmacology. 2008; 48(2):157-165). Drug clearance was estimated using population pharmacokinetic modeling of drug concentrations and used in the statistical analysis of treatment response as previously described. (Bigos K L, Pollock B G, Coley K C, et al. Sex, race, and smoking impact olanzapine exposure. Journal of Clinical Pharmacology. 2008; 48(2):157-165. Bigos K L, Bies R R, Pollock B G, Lowy J J, Zhang F, Weinberger D R. Genetic Variation in CYP3A43 Explains Racial Difference in Olanzapine Clearance. Molecular Psychiatry. In Press.)
We genotyped three SNPs rs3900779, rs748693 and rs1036145 in KCNH2 which have been associated with schizophrenia and with expression of the novel KCNH2 3.1 isoform in human post-mortem brain. (Huffaker S J, Chen J S, Nicodemus K K, et al. A primate-specific, brain isoform of KCNH2 affects cortical physiology, cognition, neuronal repolarization and risk of schizophrenia. Nat. Med. May 2009; 15(5):509-518.) Genotypes were determined using the 5′-exonuclease fluorescent Taqman assay (assay by design or assay on demand) and the allelic discrimination was read on an ABI 7900 SDS system (Applied Biosystems, Foster City, Calif.). (Livak K J. Allelic discrimination using fluorogenic probes and the 5′ nuclease assay. Genet. Anal.-Biomol. Eng. February 1999; 14(5-6):143-149.)
We also attempted to examine time to discontinuation of medication, which was a primary outcome measure of the CATIE trial. […]

[2] = rs748693, second genotype line (genotype not given) vs non-risk allele homozygote
[3] = rs748693 GG genotype vs non-risk allele homozygote
[4] = rs1036145, second genotype line (genotype not given) vs non-risk allele homozygote
[5] = rs1036145 TT genotype vs non-risk allele homozygote
[6] = rs3900779, second genotype line (genotype not given) vs reference
[7] = rs3900779, third genotype line (genotype not given) vs reference

SMILES | effect on KCNH2-1A expression within the frontal cortex (KCNH2-1A mRNA expression) | change in KCNH2-1A expression, frontal cortex (KCNH2-1A mRNA expression; 0.08 mg/kg/day, did not reach significance (p=0.082)) | change in KCNH2-1A expression, frontal cortex (KCNH2-1A mRNA expression; 0.6 mg/kg/day, did not reach significance (p=0.119)) | effect on NOS3 expression within the frontal cortex (NOS3 mRNA expression) | times less likely to have discontinued medication ([1]; GG genotype at rs748693 vs non-risk allele homozygote) [times] | hazard ratio (HR) of discontinuation of medication ([1]; GG genotype at rs748693 vs non-risk allele homozygote, p=0.031) | times less likely to have discontinued medication ([1]; TT genotype at rs1036145 vs non-risk allele homozygote) [times] | hazard ratio (HR) of discontinuation of medication ([1]; TT genotype at rs1036145 vs non-risk allele homozygote, p=0.033) | Time to discontinuation, Est (COX proportional hazard model) [1, 2] | Time to discontinuation, HR (hazard ratio) [1, 2] | Time to discontinuation, Est (COX proportional hazard model) [1, 3] | Time to discontinuation, HR (hazard ratio) [1, 3] | Time to discontinuation, Est (COX proportional hazard model) [1, 4] | Time to discontinuation, HR (hazard ratio) [1, 4] | Time to discontinuation, Est (COX proportional hazard model) [1, 5] | Time to discontinuation, HR (hazard ratio) [1, 5] | Time to discontinuation, Est (COX proportional hazard model) [1, 6] | Time to discontinuation, HR (hazard ratio) [1, 6] | Time to discontinuation, Est (COX proportional hazard model) [1, 7] | Time to discontinuation, HR (hazard ratio) [1, 7]
CN1CCN(C2=Nc3cc(Cl)ccc3Nc3ccccc32)CC1 [clozapine] | Neither clozapine nor haloperidol showed significant effects |  |  |  |  |  |  |  |  |  |  |  |  |  |  |  |  |  |  | 
O=C(CCCN1CCC(O)(c2ccc(Cl)cc2)CC1)c1ccc(F)cc1 [haloperidol] | Neither clozapine nor haloperidol showed significant effects | slight decrease | slight decrease | Neither clozapine nor haloperidol showed significant effects |  |  |  |  |  |  |  |  |  |  |  |  |  |  |  | 
Cc1cc2c(s1)Nc1ccccc1N=C2N1CCN(C)CC1 [olanzapine] |  |  |  |  | ~4 | 0.254 | ~5 | 0.208 | −0.119 | 0.888 | −1.371 | 0.254 | −0.06 | 0.942 | −1.569 | 0.208 | −0.431 | 0.65 | −0.688 | 0.503
